Non-standard residues stand in square brackets, D forms with d. Residues, ends and D or L forms follow the SMILES beside them. Phe(F5) = N[C@@H](Cc1c(F)c(F)c(F)c(F)c1F)C(=O)O; NMeY = CN[C@@H](Cc1ccc(O)cc1)C(=O)O; Nle = CCCC[C@H](N)C(=O)O; Orn = NCCC[C@H](N)C(=O)O; Abu = CC[C@H](N)C(=O)O
Key:
GH release [1] = test: In vivo endocrine activity, GH release after subcutaneous administration (Table 9); conditions: rat; for GH releasing potency relative to JI-38 (=1): subcutaneous (s.c.) injection
Method: Subcutaneous Administration. Adult male rats were used and anesthetized with pentobarbital (6 mg/100 g, b.w.), by i.p. injection. […] Blood samples were taken from the jugular vein 5, 15 and/or 30 minutes after the injection. The blood samples were centrifuged, plasma was removed and the GH level was measured byELISA. The results are summarized in terms of potency in Table 9.

GH release [2] = test: GH releasing potency in vivo, subcutaneous administration (Example 14, Table 12); set-up: species or system rat; conditions: s.c.
In short: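 Potency is expressed relative to GHRH(1-29)NH2 and JI-38 (each = 1), via equivalent GHRH(1-29)NH2 dose read from a standard curve. Peptides in 5% mannitol given i.v. or s.c. to anaesthetised male Sprague-Dawley rats (200-250 g); serum GH measured by ELISA at selected times.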

[3] = system: myocardial infarction (Fisher-344 rats); test: Hemodynamic analysis (pressure-volume loops), body and heart weight after MI, compared to JI-38 (Example 15, Table 16); assay type: in vivo, rat; set-up: key to ESP (End-Systolic Pressure) / EDP (End-Diastolic Pressure) / ESV (End-Systolic Volume) / PRSW (Preload Recruitable Stroke Work) / Ees (End-systolic Elastance) / dP/dt max (peak rate of the pressure rise) / dP/dt max_EDV / dP/dt min / TAU (relaxation time constant calculated by Weiss method) / SV (Stroke Volume) / CO (Cardiac Output) / SW (Stroke Work) / EF / Ea/Ees / Ea (arterial Elastance): ↓: downward arrow denotes lower than JI-38; ↑: upward arrow denotes greater than JI-38; =denotes same as JI-38; ⬇⬇: double arrow denotes greater effect; ⬆⬆: double arrow denotes greater effect; conditions: rat MI model, s.c. twice daily; pressure-volume loops; expressed in comparison to JI-38
In short: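 Female 6-month-old Fisher-344 rats after permanent left coronary ligation received GHRH agonists subcutaneously twice daily from 2 h post-surgery (n=10/group). Under ketamine/xylazine/acepromazine anesthesia, LV pressure-volume loops were recorded via carotid micromanometer catheter, calibrated by hypertonic saline bolus and cuvette method; echocardiography also serial.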

GHRH receptor = target: T1, GHRH receptor (Homo sapiens, UniProt Q02643); test: GHRH receptor binding, competition with 125I-labeled JV-1-42, human pituitary membrane homogenates (Table 7); set-up: Normal human pituitaries were purchased from the National Hormone and Peptide Program; tissue National Hormone and Peptide Program (A.F. Parlow, Harbor-UCLA Medical Center, Torrance, Calif.); host or cells: normal human pituitary, membrane fraction; conditions: JI-38 = 1, Table 7
T1 sequence (Q02643 23-423): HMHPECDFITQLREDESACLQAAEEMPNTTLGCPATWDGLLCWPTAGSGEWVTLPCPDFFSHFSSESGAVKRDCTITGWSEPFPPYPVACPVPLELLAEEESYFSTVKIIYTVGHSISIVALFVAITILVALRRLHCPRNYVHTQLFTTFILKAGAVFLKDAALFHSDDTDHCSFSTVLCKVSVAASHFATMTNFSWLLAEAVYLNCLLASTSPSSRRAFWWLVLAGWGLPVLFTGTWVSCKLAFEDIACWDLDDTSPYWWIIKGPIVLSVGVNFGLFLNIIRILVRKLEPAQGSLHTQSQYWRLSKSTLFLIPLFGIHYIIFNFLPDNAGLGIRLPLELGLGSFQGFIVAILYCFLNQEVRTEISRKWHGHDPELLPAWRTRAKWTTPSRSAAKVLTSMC
Text: Normal human pituitaries were purchased from the National Hormone and Peptide Program (A.F. Parlow, Los Angeles, County Harbor-UCLA Medical Center, Torrance, Calif.).

## CCCC[C@H](NC(=O)[C@@H](NC(=O)[C@H](CC(=O)O)NC(=O)[C@H](CCC(N)=O)NC(=O)[C@H](CC(C)C)NC(=O)[C@H](CC(C)C)NC(=O)[C@H](CCCN)NC(=O)[C@H](CCCNC(=N)N)NC(=O)[C@H](C)NC(=O)[C@H](CO)NC(=O)[C@H](CC(C)C)NC(=O)[C@H](CCC(N)=O)NC(=O)[C@H](CC)NC(=O)[C@H](CC(C)C)NC(=O)[C@@H](NC(=O)[C@H](CCCN)NC(=O)[C@H](CCCNC(=N)N)NC(=O)[C@H](Cc1ccc(O)cc1)NC(=O)[C@H](CO)NC(=O)[C@H](CCC(N)=O)NC(=O)[C@@H](NC(=O)[C@H](Cc1c(F)c(F)c(F)c(F)c1F)NC(=O)[C@@H](NC(=O)[C@H](C)NC(=O)[C@H](CC(=O)O)NC(=O)[C@@H](C)NC(=O)[C@H](Cc1ccc(O)cc1)NC)[C@@H](C)CC)[C@@H](C)O)C(C)C)[C@@H](C)CC)C(=O)N[C@@H](CC(=O)O)C(=O)N[C@@H](CCCNC(=N)N)C(=O)NC [Peptide P-27404, [N—Me-Tyr^1, D-Ala^2, Fpa5^6, Orn^12, Abu^15, Orn^21, Nle^27, Asp^28]hGHRH (1-29)NH—CH3] (H-[NMeY][dA]DAI[Phe(F5)]TQSYR[Orn]VL[Abu]QLSAR[Orn]LLQDI[Nle]DR-NHMe)
GH release [1]; s.c.
  Stimulation of growth hormone levels after subcutaneous administration (in words): stimulated greater growth hormone levels than hGHRH or JI-38
GH release [1]; 15 min after
  GH releasing potency relative to JI-38 (=1): 2.07
GH release [1]; 30 min after
  GH releasing potency relative to JI-38 (=1): 1.47
GH release [2]; male rats, dose 3 μg/kg, 0 min, mean ± SEM
  Serum GH level at selected time after injection (ng/ml), 0 min: 29.5 ± 3.2 ng/mL
GH release [2]; male rats, dose 3 μg/kg, 15 min, mean ± SEM
  Serum GH level at selected time after injection (ng/ml), 15 min: 320.5 ± 32.7 ng/mL
GH release [2]; male rats, dose 3 μg/kg, 30 min, mean ± SEM
  Serum GH level at selected time after injection (ng/ml), 30 min: 151 ± 28.5 ng/mL
GH release [2]; 15 min
  Relative potency compared to GHRH(1-29), 15 min: 97.1
  Relative potency compared to JI-38, 15 min: 1.54
GH release [2]; 30 min
  Relative potency compared to GHRH(1-29), 30 min: 148.4
  Relative potency compared to JI-38, 30 min: 1.33
[3]
  CO (Cardiac Output): ↑
  EDP (End-Diastolic Pressure): ↑
  EF: ↑
  ESP (End-Systolic Pressure): =
  ESV (End-Systolic Volume): =
  Ea (arterial Elastance): =
  Ea/Ees: =
  Ees (End-systolic Elastance): =
  PRSW (Preload Recruitable Stroke Work): =
  SV (Stroke Volume): ↑
  SW (Stroke Work): =
  TAU (relaxation time constant calculated by Weiss method): =
  dP/dt max (peak rate of the pressure rise): =
  dP/dt max_EDV: =
  dP/dt min: =
GHRH receptor
  Relative affinity (Binding potency) vs JI-38: 5.00

Source: US10555987B2, “GHRH agonists for the treatment of ischemic disorders” (UNIVERSITY OF MIAMI, priority 2012, dated 2020)
